From patent US8802678B2, “Carbonylated (aza) cyclohexanes as dopamine D3 receptor ligands” (Bioprojet, priority 2006, dated 2014)

Row | SMILES | melting point [°C]
1 | N#CCCCC(=O)N[C@H]1CC[C@H](CCN2CCN(c3cc(F)c(F)c(F)c3)CC2)CC1 [Example 374, 4-Cyano-N-(4-{2-[4-(3,4,5-trifluorophenyl)piperazin-1-yl]ethyl}cyclohexyl)butanamide] | 156
2 | CC(=O)CN1CCC(CCN2CC=C(c3ccc(Cl)cc3)CC2)CC1 | 101
3 | CC(C)OCC(=O)N[C@H]1CC[C@H](CCN2CCN(c3cccc(C(F)(F)F)c3C#N)CC2)CC1 [Example 101, N-(4-{2-[4-(2-Cyano-3-trifluoromethylphenyl)piperazin-1-yl]ethyl}cyclohexyl)-2-isopropoxyacetamide] | 144
4 | CCc1ccccc1C1=CCN(CCC2CCN(CC(C)=O)CC2)CC1.Cl.Cl | 316
5 | N#CCCCC(=O)N[C@H]1CC[C@H](CCN2CCN(c3cccc4cccnc34)CC2)CC1 [Example 262, 4-Cyano-N-{4-[2-(4-quinolin-8-ylpiperazin-1-yl)ethyl]cyclohexyl}butanamide] | 180
6 | N#CCC(=O)N[C@H]1CC[C@H](CCN2CCN(c3cc(F)c(F)cc3F)CC2)CC1 [Example 472, 2-Cyano-N-(4-{2-[4-(2,4,5-trifluorophenyl)piperazin-1-yl]ethyl}cyclohexyl)acetamide] | 188
7 | N#CCC(=O)N[C@H]1CC[C@H](CCN2CCN(c3cccc(Cc4ccccc4)c3)CC2)CC1 [Example 216, N-(4-{2-[4-(3-Benzylphenyl)-piperazin-1-yl]ethyl}cyclohexyl)-2-cyanoacetamide] | 168
8 | N#CCC(=O)N[C@H]1CC[C@H](CCN2CCN(c3cccc(C#N)c3)CC2)CC1 [Example 90, 2-Cyano-N-(4-{2-[4-(3-cyanophenyl)piperazin-1-yl]ethyl}cyclohexyl)acetamide trans/cis 75/25] | 188
9 | COCCCC(=O)N[C@H]1CC[C@H](CCN2CCN(c3cccc(C#N)c3)CC2)CC1 [Example 513, N-(4-{2-[4-(3-Cyanophenyl)-piperazin-1-yl]ethyl}cyclohexyl)-4-methoxybutanamide] | 168
10 | COc1ccc(Cl)cc1N1CCN(CC[C@H]2CC[C@H](NC(=O)CC#N)CC2)CC1 [Example 176, N-(4-{2-[4-(5-Chloro-2-methoxyphenyl)piperazin-1-yl]ethyl}cyclohexyl)-2-cyanoacetamide] | 180
11 | CC(=O)CN1CCC(CCN2CCN(c3cccc(-c4ccccc4)c3)CC2)CC1.Cl.Cl | 235
12 | COc1ccc(Cl)c(N2CCN(CC[C@H]3CC[C@H](NC(=O)CC#N)CC3)CC2)c1 [Example 193, N-(4-{2-[4-(2-Chloro-5-methoxyphenyl)piperazin-1-yl]ethyl}cyclohexyl)-2-cyanoacetamide] | 165
13 | CC(=O)CN1CCC(CCN2CCN(c3cc(F)cc(F)c3)CC2)CC1.Cl.Cl | 260
14 | Cc1ccc(N2CCN(CC[C@H]3CC[C@H](NC(=O)CC(F)(F)F)CC3)CC2)cc1 [Example 493, 3,3,3-Trifluoro-N-{4-[2-(4-p-tolylpiperazin-1-yl)ethyl]cyclohexyl}propanamide] | 217
15 | N#CCC(=O)N[C@H]1CC[C@H](CCN2CCC(c3cc(C(F)(F)F)cc(C(F)(F)F)c3)CC2)CC1 [Example 200, N-(4-{2-[4-(3,5-Bis-trifluoro-methylphenyl)piperidin-1-yl]ethyl}cyclohexyl)-2-cyanoacetamide] | 164
16 | Cc1cc(N2CCN(CC[C@H]3CC[C@H](NC(=O)CC#N)CC3)CC2)ccc1F [Example 322, 2-Cyano-N-(4-{2-[4-(4-fluoro-3-methylphenyl)piperazin-1-yl]ethyl}cyclohexyl)acetamide] | 192
17 | CS(=O)(=O)CC(=O)N[C@H]1CC[C@H](CCN2CCN(c3cc(C(F)(F)F)ccc3F)CC2)CC1 [Example 706, N-(4-{2-[4-(2-Fluoro-5-trifluoromethylphenyl)piperazin-1-yl]ethyl}cyclohexyl)-2-methanesulfonylacetamide] | 192
